Reference: PubChem BioAssay AID248 (DTP/NCI, 2004)
Several values for one entry are separate records, joined by “and”; a condition that tells them apart may be missing. Equal values may be shown once. Inconclusive results and toxic doses are left out.

Tested on: L1210 leukemia ip in BDF1 mice, survival T/C
Experiment: NCI In Vivo Anticancer Drug Screen. Data for tumor model L1210 Leukemia (intraperitoneal) in B6D2F1 (BDF1) mice
Details: endpoint: mean survival time, higher = longer survival
In short: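 Value reflects the ratio of survival in compound-treated mice to survival in vehicle-treated controls, with both groups carrying the same transplanted tumor.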

[1] = dose: 100.0 mg/kg/injection, schedule: Q01DX001 (ip), vehicle: Klucel (hydroxypropylcellulose) (HPC)
[2] = dose: 100.0 mg/kg/injection, schedule: Q01DX009 (ip), vehicle: Klucel (hydroxypropylcellulose) (HPC)
[3] = dose: 100.0 mg/kg/injection, schedule: Q04DX003 (ip), vehicle: Klucel (hydroxypropylcellulose) (HPC)
[4] = dose: 200.0 mg/kg/injection, schedule: Q01DX001 (ip), vehicle: Klucel (hydroxypropylcellulose) (HPC)
[5] = dose: 200.0 mg/kg/injection, schedule: Q01DX009 (ip), vehicle: Klucel (hydroxypropylcellulose) (HPC)
[6] = dose: 200.0 mg/kg/injection, schedule: Q04DX003 (ip), vehicle: Klucel (hydroxypropylcellulose) (HPC)
[7] = dose: 400.0 mg/kg/injection, schedule: Q04DX003 (ip), vehicle: Klucel (hydroxypropylcellulose) (HPC)

With `CC1(C)CSC(=S)N1CCC#N` the T/C (dose: 75.0 mg/kg/injection, schedule: Q01DX001 (ip), vehicle: other) was 104 % of control.

For `Nc1nc(SCc2ccccc2)c2ncn(C3CC(O)C(CO)O3)c2n1` (stereo unspecified), the T/C (dose: 7.0 mg/kg/injection, schedule: Q01DX015 (ip), vehicle: saline) was 118 % of control, the T/C (dose: 12.0 mg/kg/injection, schedule: Q01DX015 (ip), vehicle: saline) was 168 % of control and the T/C (dose: 20.0 mg/kg/injection, schedule: Q01DX015 (ip), vehicle: saline) was 172 % of control. The T/C (dose: 34.0 mg/kg/injection, schedule: Q01DX015 (ip), vehicle: saline) was 153 % of control, the T/C (dose: 100.0 mg/kg/injection, schedule: Q01DX005 (ip), vehicle: saline) was 97 % of control and the T/C (dose: 200.0 mg/kg/injection, schedule: Q01DX005 (ip), vehicle: saline) was 113 % of control. The T/C (dose: 400.0 mg/kg/injection, schedule: Q01DX001 (ip), vehicle: saline) was 157 % of control.

For `CCOC(=O)C1C(=O)C(C(=O)Nc2ccccc2)C(=O)C(C(=O)OCC)C1c1ccc(O)cc1` (stereo unspecified), the T/C (dose: 100.0 mg/kg/injection, schedule: Q01DX001 (ip), vehicle: other) was 91 % of control and 97 % of control, the T/C (dose: 100.0 mg/kg/injection, schedule: Q01DX009 (ip), vehicle: saline with Tween-80) was 102 % of control and 100 % of control and the T/C (dose: 100.0 mg/kg/injection, schedule: Q04DX003 (ip), vehicle: saline with Tween-80) was 103 % of control and 97 % of control. For the same compound, the T/C (dose: 200.0 mg/kg/injection, schedule: Q01DX001 (ip), vehicle: other) was 94 % of control and 91 % of control, the T/C (dose: 200.0 mg/kg/injection, schedule: Q01DX009 (ip), vehicle: saline with Tween-80) was 96 % of control and 100 % of control and the T/C (dose: 200.0 mg/kg/injection, schedule: Q04DX003 (ip), vehicle: saline with Tween-80) was 97 % of control. The T/C (dose: 400.0 mg/kg/injection, schedule: Q01DX009 (ip), vehicle: saline with Tween-80) was 100 % of control and 101 % of control and the T/C (dose: 400.0 mg/kg/injection, schedule: Q04DX003 (ip), vehicle: saline with Tween-80) was 97 % of control and 96 % of control.

For `CCCCCCCCCC(N)C(=O)O` (stereo unspecified), the T/C (dose: 50.0 mg/kg/injection, schedule: Q04DX002 (ip), vehicle: gum acacia) was 100 % of control, the T/C (dose: 100.0 mg/kg/injection, schedule: Q04DX002 (ip), vehicle: gum acacia) was 98 % of control and the T/C (dose: 200.0 mg/kg/injection, schedule: Q04DX002 (ip), vehicle: gum acacia) was 100 % of control.

For `Cc1ncc(C(C)(O)c2ccc(Cl)cc2)n1Cc1ccccc1` (stereo unspecified), the T/C [1] was 112 % of control, the T/C [2] was 92 % of control and the T/C [3] was 92 % of control. The T/C [4] was 98 % of control, the T/C [5] was 89 % of control and the T/C [6] was 88 % of control. For the same compound, the T/C (dose: 400.0 mg/kg/injection, schedule: Q01DX001 (ip), vehicle: Klucel (hydroxypropylcellulose) (HPC)) was 118 % of control, the T/C (dose: 400.0 mg/kg/injection, schedule: Q01DX009 (ip), vehicle: Klucel (hydroxypropylcellulose) (HPC)) was 92 % of control and the T/C [7] was 92 % of control.

With `OC1C2(CCCCC2)CNC12C=CCCC2` (stereo unspecified) the T/C (dose: 75.0 mg/kg/injection, schedule: Q01DX001 (ip), vehicle: saline) was 98 % of control and the T/C (dose: 150.0 mg/kg/injection, schedule: Q01DX001 (ip), vehicle: saline) was 97 % of control.

With `[C-]#[N+]/C=C1\OC(=O)C=C1C` the T/C (dose: 100.0 mg/kg/injection, schedule: Q04DX002 (ip), vehicle: saline with Tween-80) was 97 % of control, the T/C (dose: 200.0 mg/kg/injection, schedule: Q04DX002 (ip), vehicle: saline with Tween-80) was 110 % of control and the T/C (dose: 400.0 mg/kg/injection, schedule: Q04DX002 (ip), vehicle: saline with Tween-80) was 97 % of control.

`CN(C)c1ccc(/C=N/NC(=O)c2ccccc2)cc1` was tested, and the T/C (dose: 100.0 mg/kg/injection, schedule: Q04DX003 (ip), vehicle: other) was 94 % of control, the T/C (dose: 200.0 mg/kg/injection, schedule: Q04DX003 (ip), vehicle: other) was 97 % of control and the T/C (dose: 400.0 mg/kg/injection, schedule: Q04DX003 (ip), vehicle: other) was 98 % of control.

With `NC(=O)N/N=C\C=N/NC(N)=O` the T/C [1] was 92 % of control and the T/C [4] was 92 % of control.

With `O=C(CNC(=O)OCc1ccccc1)NCC(=O)NC(Cc1c[nH]c2ccccc12)C(=O)OCc1ccccc1` (stereo unspecified) the T/C [3] was 100 % of control, the T/C [6] was 101 % of control and the T/C [7] was 94 % of control.

With `CCOC(=O)c1ccc(OC(=O)Nc2ccc(Cl)c([N+](=O)[O-])c2)cc1` the T/C (dose: 50.0 mg/kg/injection, schedule: Q01DX009 (ip), vehicle: Klucel (hydroxypropylcellulose) (HPC)) was 94 % of control, the T/C [2] was 90 % of control and the T/C [3] was 100 % of control. The T/C [5] was 92 % of control and the T/C [6] was 94 % of control.
